Measured values from ChEMBL document CHEMBL1201862, “PubChem BioAssay data set” (2004).
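Compound exposure: 48 hours, 5 concentrations, 96-well plates. GI50 = concentration required for 50% inhibition of growth.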 Calls of active or inactive are those of the source. Cut-off read from the data, not from the text of the source: active = GI50 up to about 1.1 µM and inactive = higher.

Key:
Experiment in all cases: DTP human tumour cell line panel, 48 h
CCRF-CEM = test system: CCRF-CEM
SW-620 = test system: SW-620
UO-31 = test system: UO-31
SK-MEL-5 = test system: SK-MEL-5
XF498 = test system: XF498
IGROV-1 = test system: IGROV-1
SNB-75 = test system: SNB-75
OVCAR-8 = test system: OVCAR-8
DMS-273 = test system: DMS-273
HOP-92 = test system: HOP-92
LXFL 529 = test system: LXFL 529
HCT-15 = test system: HCT-15
COLO 205 = test system: COLO 205
OVCAR-3 = test system: OVCAR-3
TK-10 = test system: TK-10
SF-539 = test system: SF-539
SR = test system: SR
U-251 = test system: U-251
HCC 2998 = test system: HCC 2998
SK-MEL-28 = test system: SK-MEL-28
M14 = test system: M14
EKVX = test system: EKVX
SNB-19 = test system: SNB-19
UACC-62 = test system: UACC-62
NCI-H23 = test system: NCI-H23
HL-60 = test system: HL-60
MOLT-4 = test system: MOLT-4
SF-268 = test system: SF-268
OVCAR-4 = test system: OVCAR-4
A549 = test system: A549
DLD-1 = test system: DLD-1
K562 = test system: K562
SN12C = test system: SN12C
HCT-116 = test system: HCT-116
ACHN = test system: ACHN
HOP-62 = test system: HOP-62
KM12 = test system: KM12
DMS-114 = test system: DMS-114
UACC-257 = test system: UACC-257
SNB-78 = test system: SNB-78
RXF 393 = test system: RXF 393
CAKI-1 = test system: CAKI-1
M19-MEL = test system: M19-MEL
RPMI-8226 = test system: RPMI-8226
SF-295 = test system: SF-295
NCI-H460 = test system: NCI-H460
SK-MEL-2 = test system: SK-MEL-2
A498 = test system: A498
SK-OV-3 = test system: SK-OV-3
786-0 = test system: 786-0
LOX IMVI = test system: LOX IMVI
KM-20L2 = test system: KM-20L2
HT-29 = test system: HT-29
OVCAR-5 = test system: OVCAR-5
NCI-H522 = test system: NCI-H522
Malme-3M = test system: Malme-3M
HOP-18 = test system: HOP-18
NCI-H226 = test system: NCI-H226

CC1=NN(C(=O)Nc2ccc(Cl)cc2)C(=O)C2CCC(=O)N12 (stereo not drawn)
GI50 (CCRF-CEM): > 100 µM (inactive) | GI50 (SW-620): > 100 µM (inactive) | GI50 (UO-31): 61.2 µM (inactive) | GI50 (SK-MEL-5): 87.3 µM (inactive) | GI50 (XF498): > 100 µM (inactive) | GI50 (IGROV-1): > 100 µM (inactive) | GI50 (SNB-75): > 100 µM (inactive) | GI50 (OVCAR-8): > 100 µM (inactive) | GI50 (DMS-273): 47.3 µM (inactive) | GI50 (HOP-92): > 100 µM (inactive) | GI50 (LXFL 529): 2.65 µM (inactive) | GI50 (HCT-15): 1.76 µM | GI50 (COLO 205): > 100 µM (inactive) | GI50 (OVCAR-3): > 100 µM (inactive) | GI50 (TK-10): > 100 µM (inactive) | GI50 (SF-539): > 100 µM (inactive) | GI50 (SR): > 100 µM (inactive) | GI50 (U-251): > 100 µM (inactive) | GI50 (HCC 2998): > 100 µM (inactive) | GI50 (SK-MEL-28): > 100 µM (inactive) | GI50 (M14): > 100 µM (inactive) | GI50 (EKVX): > 100 µM (inactive) | GI50 (SNB-19): > 100 µM (inactive) | GI50 (UACC-62): 2.2 µM (inactive) | GI50 (NCI-H23): 74.1 µM (inactive) | GI50 (HL-60): 61.7 µM (inactive) | GI50 (MOLT-4): 53 µM (inactive) | GI50 (SF-268): 45.3 µM (inactive) | GI50 (OVCAR-4): 72.8 µM (inactive) | GI50 (A549): 49.3 µM (inactive) | GI50 (DLD-1): > 100 µM (inactive) | GI50 (K562): 3.19 µM (inactive) | GI50 (SN12C): > 100 µM (inactive) | GI50 (HCT-116): > 100 µM (inactive) | GI50 (ACHN): 5.73 µM (inactive) | GI50 (HOP-62): > 100 µM (inactive) | GI50 (KM12): 28.9 µM (inactive) | GI50 (DMS-114): > 100 µM (inactive) | GI50 (UACC-257): 49.3 µM (inactive) | GI50 (SNB-78): > 100 µM (inactive) | GI50 (RXF 393): > 100 µM (inactive) | GI50 (CAKI-1): 60.3 µM (inactive) | GI50 (M19-MEL): > 100 µM (inactive) | GI50 (RPMI-8226): 93.3 µM (inactive) | GI50 (SF-295): 48.3 µM (inactive) | GI50 (NCI-H460): 28.3 µM (inactive) | GI50 (SK-MEL-2): > 100 µM (inactive) | GI50 (A498): > 100 µM (inactive) | GI50 (SK-OV-3): 38.7 µM (inactive) | GI50 (786-0): 88.7 µM (inactive) | GI50 (LOX IMVI): 4.13 µM (inactive) | GI50 (KM-20L2): 4.38 µM (inactive)

O=C1C(Cl)N(c2c(Cl)cccc2Cl)C1c1c[nH]c2ccccc12 (stereo not drawn)
GI50 (CCRF-CEM): > 100 µM (inactive) | GI50 (SW-620): > 100 µM (inactive) | GI50 (UO-31): > 100 µM (inactive) | GI50 (SK-MEL-5): > 100 µM (inactive) | GI50 (XF498): > 100 µM (inactive) | GI50 (IGROV-1): > 100 µM (inactive) | GI50 (SNB-75): > 100 µM (inactive) | GI50 (HT-29): > 100 µM (inactive) | GI50 (OVCAR-5): > 100 µM (inactive) | GI50 (OVCAR-8): > 100 µM (inactive) | GI50 (HOP-92): > 100 µM (inactive) | GI50 (LXFL 529): > 100 µM (inactive) | GI50 (COLO 205): > 100 µM (inactive) | GI50 (OVCAR-3): > 100 µM (inactive) | GI50 (TK-10): > 100 µM (inactive) | GI50 (SF-539): > 100 µM (inactive) | GI50 (SR): > 100 µM (inactive) | GI50 (NCI-H522): > 100 µM (inactive) | GI50 (U-251): > 100 µM (inactive) | GI50 (SK-MEL-28): > 100 µM (inactive) | GI50 (M14): > 100 µM (inactive) | GI50 (EKVX): > 100 µM (inactive) | GI50 (SNB-19): > 100 µM (inactive) | GI50 (UACC-62): > 100 µM (inactive) | GI50 (NCI-H23): > 100 µM (inactive) | GI50 (HL-60): > 100 µM (inactive) | GI50 (MOLT-4): > 100 µM (inactive) | GI50 (SF-268): > 100 µM (inactive) | GI50 (OVCAR-4): > 100 µM (inactive) | GI50 (A549): > 100 µM (inactive) | GI50 (DLD-1): > 100 µM (inactive) | GI50 (K562): > 100 µM (inactive) | GI50 (SN12C): > 100 µM (inactive) | GI50 (HCT-116): > 100 µM (inactive) | GI50 (HOP-62): > 100 µM (inactive) | GI50 (KM12): > 100 µM (inactive) | GI50 (UACC-257): > 100 µM (inactive) | GI50 (RXF 393): > 100 µM (inactive) | GI50 (Malme-3M): 36.3 µM (inactive) | GI50 (M19-MEL): > 100 µM (inactive) | GI50 (RPMI-8226): > 100 µM (inactive) | GI50 (SF-295): > 100 µM (inactive) | GI50 (NCI-H460): > 100 µM (inactive) | GI50 (SK-MEL-2): > 100 µM (inactive) | GI50 (SK-OV-3): > 100 µM (inactive) | GI50 (KM-20L2): > 100 µM (inactive)

COC(=O)/C(=C\c1ccc(N(CCC#N)CCC#N)cc1)NC(=O)c1cc([N+](=O)[O-])ccc1Cl
GI50 (CCRF-CEM): > 100 µM (inactive) | GI50 (SW-620): > 100 µM (inactive) | GI50 (UO-31): > 100 µM (inactive) | GI50 (SK-MEL-5): > 100 µM (inactive) | GI50 (HOP-18): > 100 µM (inactive) | GI50 (IGROV-1): > 100 µM (inactive) | GI50 (SNB-75): > 100 µM (inactive) | GI50 (HT-29): > 100 µM (inactive) | GI50 (OVCAR-5): > 100 µM (inactive) | GI50 (OVCAR-8): > 100 µM (inactive) | GI50 (DMS-273): > 100 µM (inactive) | GI50 (LXFL 529): > 100 µM (inactive) | GI50 (HCT-15): > 100 µM | GI50 (COLO 205): > 100 µM (inactive) | GI50 (OVCAR-3): > 100 µM (inactive) | GI50 (TK-10): > 100 µM (inactive) | GI50 (SF-539): > 100 µM (inactive) | GI50 (SR): 30.5 µM (inactive) | GI50 (NCI-H522): > 100 µM (inactive) | GI50 (U-251): > 100 µM (inactive) | GI50 (HCC 2998): > 100 µM (inactive) | GI50 (SK-MEL-28): > 100 µM (inactive) | GI50 (M14): > 100 µM (inactive) | GI50 (EKVX): > 100 µM (inactive) | GI50 (SNB-19): > 100 µM (inactive) | GI50 (UACC-62): > 100 µM (inactive) | GI50 (NCI-H23): > 100 µM (inactive) | GI50 (MOLT-4): > 100 µM (inactive) | GI50 (SF-268): > 100 µM (inactive) | GI50 (OVCAR-4): > 100 µM (inactive) | GI50 (A549): > 100 µM (inactive) | GI50 (DLD-1): > 100 µM (inactive) | GI50 (K562): > 100 µM (inactive) | GI50 (SN12C): > 100 µM (inactive) | GI50 (HCT-116): > 100 µM (inactive) | GI50 (NCI-H226): > 100 µM (inactive) | GI50 (ACHN): > 100 µM (inactive) | GI50 (HOP-62): > 100 µM (inactive) | GI50 (KM12): > 100 µM (inactive) | GI50 (DMS-114): > 100 µM (inactive) | GI50 (UACC-257): > 100 µM (inactive) | GI50 (SNB-78): > 100 µM (inactive) | GI50 (RXF 393): > 100 µM (inactive) | GI50 (CAKI-1): > 100 µM (inactive) | GI50 (Malme-3M): > 100 µM (inactive) | GI50 (M19-MEL): > 100 µM (inactive) | GI50 (RPMI-8226): > 100 µM (inactive) | GI50 (SF-295): > 100 µM (inactive) | GI50 (NCI-H460): > 100 µM (inactive) | GI50 (SK-MEL-2): > 100 µM (inactive) | GI50 (A498): > 100 µM (inactive) | GI50 (SK-OV-3): > 100 µM (inactive) | GI50 (786-0): > 100 µM (inactive) | GI50 (LOX IMVI): > 100 µM (inactive) | GI50 (KM-20L2): > 100 µM (inactive)
